Data set [1] in a line: Therapeutic index, ratio of IC50 for human H9 cells to EC50 for HIV1. Conditions: for pTI: h9. In kind it is cell-based.
Data set [2] relates to Human immunodeficiency virus 1. Kind of data set: Antiviral activity against Human immunodeficiency virus 1 infected human H9 cells assessed as inhibition of viral replication. Type of data set: functional, organism-based. The following applies: Human immunodeficiency virus 1, H9.

In the case of `C=C(C)[C@@H]1CC[C@]2(C(=O)O)CC[C@]3(C)[C@H](CC[C@@H]4[C@@]5(C)CC[C@H](OC(=O)CCCC(=O)O)C(C)(C)[C@@H]5CC[C@]43C)[C@@H]12`, the pTI in data set [1] is given as -2.465. Also, the EC50 in data set [2] (read-out: pEC50 (converted)) was 0.044 µM.
With `C=C(C)[C@@H]1CC[C@]2(C(=O)OC(=O)N3CCOCC3)CC[C@]3(C)[C@H](CC[C@@H]4[C@@]5(C)CC[C@H](O)C(C)(C)[C@@H]5CC[C@]43C)[C@@H]12`, the pTI in data set [1] was -0.556. In addition, in data set [2] (read-out: pEC50 (converted)), the EC50 was 3.2 µM.
On to `C=C(C)[C@@H]1CC[C@]2(C(=O)O)CC[C@]3(C)[C@H](CC[C@@H]4[C@@]5(C)CC[C@H](OC(=O)COCC(=O)O)C(C)(C)[C@@H]5CC[C@]43C)[C@@H]12`, for which, in data set [1], the pTI was -3.069. Also, the EC50 in data set [2] (read-out: pEC50 (converted)) is 0.01 µM.
With `CC(C)[C@@H]1CC[C@]2(C(=O)O)CC[C@]3(C)[C@H](CC[C@@H]4[C@@]5(C)CC[C@H](OC(=O)CC(C)(C)C(=O)O)C(C)(C)[C@@H]5CC[C@]43C)[C@@H]12`, in data set [1], the pTI is given as -4.146. The EC50 in data set [2] (read-out: pEC50 (converted)) was 0.0003 µM.
In the case of `CC(C)[C@@H]1CC[C@]2(C(=O)O)CC[C@]3(C)[C@H](CC[C@@H]4[C@@]5(C)CC[C@H](OC(=O)C(C)(C)CC(=O)O)C(C)(C)[C@@H]5CC[C@]43C)[C@@H]12`, the pTI in data set [1] is reported as -1.14. In addition, the EC50 in data set [2] (read-out: pEC50 (converted)) is 0.56 µM.
`CC(C)[C@@H]1CC[C@]2(C(=O)O)CC[C@]3(C)[C@H](CC[C@@H]4[C@@]5(C)CC[C@H](OC(=O)CC(C)(C)CC(=O)O)C(C)(C)[C@@H]5CC[C@]43C)[C@@H]12`: the pTI in data set [1] is given as -3.007. In addition, in data set [2] (read-out: pEC50 (converted)), the EC50 is 0.0057 µM.
`C=C(C)[C@@H]1CC[C@]2(C(=O)O)CC[C@]3(C)[C@H](CC[C@@H]4[C@@]5(C)CC[C@H](OC(=O)C(C)(C)CC(=O)O)C(C)(C)[C@@H]5CC[C@]43C)[C@@H]12`: the pTI in data set [1] is given as -0.826. In addition, the EC50 in data set [2] (read-out: pEC50 (converted)) was 2.7 µM.
Take `C=C(C)[C@@H]1CC[C@]2(C(=O)O)CC[C@]3(C)[C@H](CC[C@@H]4[C@@]5(C)CC[C@H](O)C(C)(C)[C@@H]5CC[C@]43C)[C@@H]12` (stereo in doubt; 8) [BETULINIC ACID]: the pTI in data set [1] is -1.146. Moreover, the EC50 in data set [2] (read-out: pEC50 (converted)) was 0.899 µM.
For `C=C(C)[C@@H]1CC[C@]2(CO)CC[C@]3(C)[C@H](CC[C@@H]4[C@@]5(C)CC[C@@H](O)C(C)(C)[C@@H]5CC[C@]43C)[C@@H]12` [3-EPI-BETULIN], the pTI in data set [1] is -0.532. Moreover, the EC50 in data set [2] (read-out: pEC50 (converted)) was 3.62 µM.
As to `C=C(CO)[C@@H]1CC[C@]2(CO)CC[C@]3(C)[C@H](CC[C@@H]4[C@@]5(C)CC[C@H](O)C(C)(C)[C@@H]5CC[C@]43C)[C@@H]12` [30-HYDROXY-BETULIN], in data set [1], the pTI is on record as -0.447. Also, the EC50 in data set [2] (read-out: pEC50 (converted)) is 50.8 µM.
In the case of `C=C(C)[C@@H]1CC[C@]2(COC(C)=O)CC[C@]3(C)[C@H](CC[C@@H]4[C@@]5(C)CC[C@H](OC(C)=O)C(C)(C)[C@@H]5CC[C@]43C)[C@@H]12` [BETULIN DIACETATE], in data set [1], the pTI is recorded as 0. The EC50 in data set [2] (read-out: pEC50 (converted)) is 190 µM.
As to `C=C(C)[C@@H]1CC[C@]2(/C=N/O)CC[C@]3(C)[C@H](CC[C@@H]4[C@@]5(C)CC/C(=N\O)C(C)(C)[C@@H]5CC[C@]43C)[C@@H]12` [BETULIN-3,28-DIOXIME], the pTI in data set [1] is recorded as -0.708. Further, the EC50 in data set [2] (read-out: pEC50 (converted)) was 1.07 µM.
As for `C=C(C)[C@@H]1CC[C@]2(C(=O)O)CC[C@]3(C)[C@H](CC[C@@H]4[C@@]5(C)CC[C@H](OC(=O)CC(C)(C)C(=O)O)C(C)(C)[C@@H]5CC[C@]43C)[C@@H]12` [BEVIRIMAT], in data set [1] (H9 cells, read-out: Ratio IC50/EC50), the selectivity ratio was 20000. Also, the pTI in data set [1] was -4.301. Further, the figures for the EC50 in data set [2] (read-out: EC50) and in data set [2] (read-out: pEC50 (converted)) were 0.00035 µM and 0.0003 µM, respectively.

The values above are taken from ChEMBL document CHEMBL3046569 (Med Chem Res, 2011).
